Holding throughout (assay type): cell-based
One assay has as its system HL-60 (FLT3 wild type). Kind of assay: In vitro growth inhibition (GI50), HL-60. Particulars: Homo sapiens, Cell lines of leukemia, read-out: GI 50 HL60 FLT3 (WT). Summed up:
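After 3–5 days of treatment (top concentration 5,000 nM, serially diluted 2- or 10-fold to 0.01 nM, solvent ≤1%), viability was read by CCK8 at OD450. Growth rate was normalised to the time-zero and solvent-control wells, and GI50 was derived from the curve. Cultures in RPMI1640 + 10% FBS.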

A further assay concerns SK-BR-3 (HER2/ErbB2 amp). As to the kind of experiment: In vitro growth inhibition (GI50), SK-BR-3. The following applies: Homo sapiens, SK-BR3, HER2/ErbB2 amp+. The source says: (§1) Tumor cell line is an effective cell model for studying the inhibition of tumor cell growth or proliferation in vitro. In the present invention, a representative tumor cell line was selected to determine the cell growth inhibition activity of the present compound. All cell lines used were from ATCC, DSMZ, and the Cell Bank of the Chinese Academy of Sciences. Cell culture conditions and methods were in accordance with the requirements of each cell line. Cells were subcultured in vitro for no more than 3 passages each time, and as required, single-clone purification and identification of cell lines could be carried out.
(§2) The cell culture media used were RPMI1640 (Gibco), MEM (Gibco), McCOY'S5A (Gibco), and IMDM (Gibco). The complete medium was prepared by supplement with 5˜20% fetal calf serum (Gibco), 1% double-antibiotics (10000 units/mL penicillin and 10000 units/mL), 2 mM glutamine or 1 mM sodium pyruvate, respectively.
Human gastric cancer cell line NCI-N87 (HER2/ErbB2 amp, ATCC), human breast cancer cell line HCC1954 (HER2/ErbB2 amp, ATCC) and ZR-75-30 (HER2/ErbB2 amp, ATCC), human adenocarcinoma cell line AU565 (HER2/ErbB2 amp, ATCC), human lung squamous cell carcinoma cell line NCI-H2170 (HER2/ErbB2 amp, ATCC), human bronchioalveolar adenocarcinoma cell line NCI-H1781 (HER2/ErbB2 Ins G776V,C mutant type, ATCC) were cultured with a 1×RPMI1640 complete medium (10% FBS), respectively. Human lung adenocarcinoma cell line Calu-3 (HER2/ErbB2 amp, ATCC) was cultured with 1×MEM, 10% FBS, 1% double antibody, 1% NEAA (Gibco), 2 mM glutamine and 1 mM sodium pyruvate. The human breast cancer cell line SK-BR-3 (HER2/ErbB2 amp, ATCC) was cultured with a McCOY'S5A complete medium (10% FBS).
(§3) Adherent cells were digested with 0.25% pancreatin-EDTA (Gibco). The suspension cells were collected by centrifugation. The supernatant was discarded and the cell pellet was resuspended and counted. Different cell concentrations (5˜10×10^4 cells/mL) were prepared according to the growth cycle of each cell line and then seeded on a 96-well plate (Corning), 100 μL/well. The cells were incubated overnight at 37° C., 5% CO2. The compounds were added to the cells on the second day with 2 wells in parallel. The final concentration of organic solvent shall not exceed 1%. The cells were continually incubated for 3 to 5 days, and then subjected to MTT assay.
(§4) The compound of the present invention and the control compound were dissolved in DMSO (Sigma) respectively, with the purity of more than 98%. The compound was stored in a concentration of 10 mM at −20° C. and diluted to 2- or 10-fold series prior to use.
(§5) Dojindo CCK8 reagent kit was used as MTT assay. THERMO […] FC meter was used as microplate reader.
(§6) For adherent cells, culture medium was removed and immediately replaced with the fresh prepared medium which contains 10% CCK8 reagent (100 μL/well). For the suspension cells, CCK8 was directly added to 10% of the final concentration. The cells were continually incubated for 1˜4 h. When a dark yellow color could be observed in the solvent control wells, the absorbance value at OD450 nm was measured and the cell growth rate was calculated according to the following formula: Cell Growth Rate (%)=100*(T−T0)/(C−T0) T=optical density of drug treatment cell well—optical density of blank control well; T0=optical density of cell well before drug treatment—optical density of blank control well; C=optical density of cell well of solvent control group—optical density of blank control well. The concentration value of 50% inhibition of cell growth (GI50) was calculated according to the drug concentration and cell growth rate curve. The experiment was independently repeated 1˜3 times, and subject to biological statistical analysis. 4. Experimental Results
Tumor cell growth inhibition test was performed by selecting representative compounds (compounds 4, 11, 12, 16, 27, 68, 71, 77, 79, 89 and 116 of the present invention). […]

Assay [1] concerns Karpas-299 (expressing NPM-ALK fusion gene). As to the kind of experiment: In vitro growth inhibition (GI50), Karpas-299. The following applies: Homo sapiens; Karpas-299, NPM-ALK.
Text: as §1, §2
Human non-small cell lung cancer cell line NCI-H2228 (expressing EML4-ALK fusion gene, ATCC) and human anaplastic large cell lymphoma cell line Karpas-299 (expressing NPM-ALK fusion gene, ATCC) were cultured in complete medium comprising 1×RPMI1640 (10% FBS), respectively. Neuroblastoma cell line SH-SY5Y (expressing ALK F1174L mutant protein, Shanghai Cell Bank, Chinese Academy of Sciences) was cultured in MEM complete medium (1×MEM, 10% FBS, 1% NEAA, 1 mM sodium pyruvate).
as §3, §4, §5, §6
Tumor cell growth inhibition test was performed by selecting representative compounds (compounds 4, 11, 12, 16, 27, 68, 71, 77, 79, 89 and 116 of the present invention). The initial concentration of the compound was 5,000 nM, then it was serially diluted by 2-fold or 10-fold to 0.01 nM. The GI50 value of each test compound was calculated according to the GI50 assay and calculation method. The experiments were repeated 1 to 3 times, and data were subjected to biological statistical analysis.

Take `CC(C)(C)c1cc(NC(=O)Nc2ccc(-n3cnc4cc(O)ccc43)cc2)no1` [Compound 4, 1-(5-tert-butyl-isoxazol-3-yl)-3-[4-(5-hydroxy-benzimidazol-1-yl)-phenyl]-urea]: the GI50 with HL-60 (FLT3 wild type) was 100 to 1000 nM; in the assay on SK-BR-3 (HER2/ErbB2 amp), greater than 2500 nM.
As to `CC(C)(C)c1cc(NC(=O)Nc2ccc(-n3cnc4cc(OCCO)ccc43)cc2)no1` [Compound 11, 1-(5-tert-butyl-isoxazol-3-yl)-3-{4-[5-(2-hydroxy-ethoxyl)-benzimidazol-1-yl]-phenyl]-urea], the GI50 is greater than 1000 nM with HL-60 (FLT3 wild type) and greater than 2500 nM in the assay with SK-BR-3 (HER2/ErbB2 amp).
As for `CC(C)(C)c1cc(NC(=O)Nc2ccc(-n3cnc4cc(OCCN5CCOCC5)ccc43)cc2)no1` [Compound 16, 1-(5-tert-butyl-isoxazol-3-yl)-3-{4-[5-(2-morpholin-4-yl-ethoxyl)-benzimidazol-1-yl]-phenyl}-urea], the GI50 in assay [1] was greater than 2500 nM; with HL-60 (FLT3 wild type) it was greater than 1000 nM; in the assay on SK-BR-3 (HER2/ErbB2 amp), greater than 2500 nM.
`CC(C)(C)c1cc(NC(=O)Nc2ccc(-n3cnc4ccc(OCCN5CCOCC5)cc43)cc2)no1` [Compound 27, 1-(5-tert-butyl-isoxazol-3-yl)-3-{4-[6-(2morpholin-4-yl-ethoxyl)-benzimidazol-1-yl]-phenyl}-urea]: the GI50 in the assay with HL-60 (FLT3 wild type) was 100 to 1000 nM; in the assay with SK-BR-3 (HER2/ErbB2 amp), greater than 2500 nM.
Turning to `CC(C)(C)c1cc(NC(=O)Nc2ccc(-n3cnc4ccccc43)cc2)[nH]n1` [Compound 68, 1-(4-benzimidazol-1-yl-phenyl)-3-(5-tert-butyl-2H-pyrazol-3-yl)-urea], the GI50 is 1880 nM in assay [1], greater than 1000 nM in the assay on HL-60 (FLT3 wild type) and greater than 2500 nM with SK-BR-3 (HER2/ErbB2 amp).
Consider `COc1ccc2c(c1)ncn2-c1ccc(NC(=O)Nc2cc(C(C)(C)C)n[nH]2)cc1` [Compound 71, 1-(5-tert-butyl-2H-pyrazol-3-yl)-3-[4-(5-methoxyl-benzimidazol-1-yl)-phenyl]-urea], for which the figures for the GI50 (in assay [1]; with HL-60 (FLT3 wild type); in the assay with SK-BR-3 (HER2/ErbB2 amp)) were greater than 2500 nM, greater than 1000 nM and greater than 2500 nM, respectively.
With `COCCOc1ccc2c(c1)ncn2-c1ccc(NC(=O)Nc2cc(C(C)(C)C)n[nH]2)cc1` [Compound 77, 1-(5-tert-butyl-2H-pyrazol-3-yl)-3-{4-[5-(2-methoxyl-ethoxyl)-benzimidazol-1-yl]-phenyl}-urea], the GI50 in assay [1] was greater than 2500 nM; with HL-60 (FLT3 wild type), greater than 1000 nM; with SK-BR-3 (HER2/ErbB2 amp), greater than 2500 nM.
As to `CC(C)(C)c1cc(NC(=O)Nc2ccc(-n3cnc4cc(OCCO)ccc43)cc2)[nH]n1` [Compound 79, 1-(5-tert-butyl-2H-pyrazol-3-yl)-3-{4-[5-(2-hydroxy-ethoxyl)-benzimidazol-1-yl]-phenyl]urea], the results for the GI50 (in assay [1]; in the assay on HL-60 (FLT3 wild type); with SK-BR-3 (HER2/ErbB2 amp)) were greater than 2500 nM, greater than 1000 nM and greater than 2500 nM, respectively.
Consider `CC(C)(C)c1cc(NC(=O)Nc2ccc(-n3cnc4cc(OCCN5CCOCC5)ccc43)cc2)[nH]n1` [Compound 89, 1-(5-tert-butyl-2H-pyrazol-3-yl)-3-{4-[5-(2-morpholin-4-yl-ethoxyl)-benzimidazol-1-yl]-phenyl}-urea], for which the GI50 is greater than 2500 nM in assay [1], greater than 1000 nM in the assay with HL-60 (FLT3 wild type) and greater than 2500 nM in the assay with SK-BR-3 (HER2/ErbB2 amp).
Consider `CC(C)(C)c1cc(N)n(C(=O)Nc2ccc(-n3cnc4ccccc43)cc2)n1` [Compound 116, 5-amino-3-tert-butyl-pyrazol-1-carboxylic acid (4-benzimidazol-1-yl-phenyl)-amide], for which the GI50 is greater than 2500 nM in assay [1], greater than 1000 nM in the assay on HL-60 (FLT3 wild type) and greater than 2500 nM with SK-BR-3 (HER2/ErbB2 amp).
